Source: PubChem BioAssay AID328 (DTP/NCI, 2004)
Where “and” joins values, the source holds several entries; their conditions need not be identical. Equal values may be shown once. Inconclusive results and toxic doses are left out. The calls were made as follows: active = survival T/C of 150% or more; inactive = T/C below 125% in these data.

Test system: BDF1 mice, P388 leukemia ip, median survival T/C
Assay: NCI In Vivo Anticancer Drug Screen. Data for tumor model P388 Leukemia (intraperitoneal) in B6D2F1 (BDF1) mice
Settings: endpoint: median survival time, higher = longer survival
Summary of the method: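 Each value expresses how treatment altered survival: treated-mouse outcome over vehicle-mouse outcome, both groups bearing the transplanted tumour.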

[1] = dose: 25.0 mg/kg/injection, schedule: Q01DX009 (ip), vehicle: Klucel (hydroxypropylcellulose) (HPC)
[2] = dose: 50.0 mg/kg/injection, schedule: Q01DX009 (ip), vehicle: Klucel (hydroxypropylcellulose) (HPC)
[3] = dose: 100.0 mg/kg/injection, schedule: Q04DX003 (ip), vehicle: Klucel (hydroxypropylcellulose) (HPC)
[4] = dose: 200.0 mg/kg/injection, schedule: Q04DX003 (ip), vehicle: Klucel (hydroxypropylcellulose) (HPC)
[5] = dose: 400.0 mg/kg/injection, schedule: Q04DX003 (ip), vehicle: Klucel (hydroxypropylcellulose) (HPC)
[6] = dose: 50.0 mg/kg/injection, schedule: Q01DX009 (ip), vehicle: saline
[7] = dose: 50.0 mg/kg/injection, schedule: Q01DX009 (ip), vehicle: saline with Tween-80
[8] = dose: 100.0 mg/kg/injection, schedule: Q01DX009 (ip), vehicle: saline with Tween-80
[9] = dose: 25.0 mg/kg/injection, schedule: Q01DX009 (ip), vehicle: saline with Tween-80
[10] = dose: 200.0 mg/kg/injection, schedule: Q01DX009 (ip), vehicle: saline with Tween-80
[11] = dose: 100.0 mg/kg/injection, schedule: Q04DX003 (ip), vehicle: saline with Tween-80
[12] = dose: 200.0 mg/kg/injection, schedule: Q04DX003 (ip), vehicle: saline with Tween-80
[13] = dose: 400.0 mg/kg/injection, schedule: Q04DX003 (ip), vehicle: saline with Tween-80
[14] = dose: 100.0 mg/kg/injection, schedule: Q01DX009 (ip), vehicle: Klucel (hydroxypropylcellulose) (HPC)
[15] = dose: 200.0 mg/kg/injection, schedule: Q01DX009 (ip), vehicle: Klucel (hydroxypropylcellulose) (HPC)
[16] = dose: 100.0 mg/kg/injection, schedule: Q04DX003 (ip), vehicle: saline
[17] = dose: 200.0 mg/kg/injection, schedule: Q04DX003 (ip), vehicle: saline

Measured: T/C

C[C@]12CCC(=O)C=C1CC[C@@H]1[C@@H]2[C@@H](O)C[C@@]2(C)[C@H]1CC[C@]2(O)C(=O)COC(=O)CCC1CCCC1
inactive: dose: 12.5 mg/kg/injection, schedule: Q01DX009 (ip), vehicle: Klucel (hydroxypropylcellulose) (HPC) 118 % of control | [1] 113 % of control | [2] 100 % of control | [3] 123 % of control | [4] 109 % of control | [5] 109 % of control

COC(=O)N1CCC2OC2C1 (centres undefined)
inactive: [6] 99 % of control | dose: 100.0 mg/kg/injection, schedule: Q01DX009 (ip), vehicle: saline 107 % of control | dose: 200.0 mg/kg/injection, schedule: Q01DX009 (ip), vehicle: saline 100 % of control

CC(C)CNS(=O)(=O)c1ncnc2nc[nH]c12
inactive: [7] 109 % of control | [8] 109 % of control

CCc1ccccc1OS(=O)(=O)c1ccc([N+](=O)[O-])cc1
inactive: dose: 100.0 mg/kg/injection, schedule: Q01DX009 (ip), vehicle: saline sonified 88 % of control | dose: 200.0 mg/kg/injection, schedule: Q01DX009 (ip), vehicle: saline sonified 88 % of control | dose: 400.0 mg/kg/injection, schedule: Q01DX009 (ip), vehicle: saline sonified 94 % of control

CC(C)(Br)C(=O)c1ccco1
inactive: [9] 109 % of control | [7] 113 % of control | [8] 113 % of control

Cc1cc(C)c(N)c(C)c1N
inactive: [1] 118 % of control | [2] 95 % of control | dose: 100.0 mg/kg/injection, schedule: Q04DX003 (ip), vehicle: other 105 % of control | dose: 200.0 mg/kg/injection, schedule: Q04DX003 (ip), vehicle: other 100 % of control | dose: 400.0 mg/kg/injection, schedule: Q04DX003 (ip), vehicle: other 105 % of control

CN(C(=O)/C=C/C(=O)O)c1ccccc1
inactive: [9] 109 % of control | [7] 109 % of control | [8] 109 % of control | [10] 113 % of control | dose: 400.0 mg/kg/injection, schedule: Q01DX009 (ip), vehicle: saline with Tween-80 100 % of control

CSc1c(C)[nH]c2ccc([N+](=O)[O-])cc12
inactive: dose: 25.0 mg/kg/injection, schedule: Q01DX001 (ip), vehicle: saline with Tween-80 95 % of control | dose: 50.0 mg/kg/injection, schedule: Q01DX001 (ip), vehicle: saline with Tween-80 111 % of control | dose: 100.0 mg/kg/injection, schedule: Q01DX001 (ip), vehicle: saline with Tween-80 100 % of control

CCCCNC(=O)Nc1ccccc1Cl
inactive: [11] 100 % of control | [12] 100 % of control | [13] 95 % of control

N#CCCC1(CCC#N)c2ccccc2-c2ccccc21
inactive: [14] 92 % of control | [3] 96 % of control | [15] 92 % of control | [4] 112 % of control | dose: 400.0 mg/kg/injection, schedule: Q01DX009 (ip), vehicle: Klucel (hydroxypropylcellulose) (HPC) 92 % of control | [5] 92 % of control

Cc1ccc(S(=O)(=O)NC(=O)C2C(=O)CC3(CCCCC3)CC2=O)cc1
inactive: [2] 109 % of control | [14] 118 % of control

O=C(OC1C(OC(=O)C(Cl)Cl)C(OC(=O)C(Cl)Cl)C(OC(=O)C(Cl)Cl)C(OC(=O)C(Cl)Cl)C1OC(=O)C(Cl)Cl)C(Cl)Cl (centres undefined)
inactive: dose: 37.5 mg/kg/injection, schedule: Q01DX001 (ip), vehicle: saline sonified 95 % of control | dose: 75.0 mg/kg/injection, schedule: Q01DX001 (ip), vehicle: saline sonified 100 % of control | dose: 150.0 mg/kg/injection, schedule: Q01DX001 (ip), vehicle: saline sonified 86 % of control

CC1CC[N-]CC1.CC1CC[N-]CC1.CC1CC[N-]CC1.CC1CC[N-]CC1.[Pt+4]
inactive: dose: 0.09 mg/kg/injection, schedule: Q01DX009 (ip), vehicle: saline 88 % of control | dose: 0.19 mg/kg/injection, schedule: Q01DX009 (ip), vehicle: saline 93 % of control | dose: 0.23 mg/kg/injection, schedule: Q01DX009 (ip), vehicle: saline 88 % of control | dose: 0.25 mg/kg/injection, schedule: Q01DX009 (ip), vehicle: saline 102 % of control | dose: 0.39 mg/kg/injection, schedule: Q01DX009 (ip), vehicle: saline 92 % of control | dose: 0.5 mg/kg/injection, schedule: Q01DX009 (ip), vehicle: saline 102 % of control | dose: 0.65 mg/kg/injection, schedule: Q01DX009 (ip), vehicle: saline 92 % of control | dose: 0.78 mg/kg/injection, schedule: Q01DX009 (ip), vehicle: saline 88 % of control and 105 % of control | dose: 1.0 mg/kg/injection, schedule: Q01DX009 (ip), vehicle: saline 112 % of control | dose: 1.56 mg/kg/injection, schedule: Q01DX009 (ip), vehicle: saline 90 % of control | dose: 1.56 mg/kg/injection, schedule: Q04DX003 (ip), vehicle: saline 109 % of control | dose: 2.0 mg/kg/injection, schedule: Q01DX009 (ip), vehicle: saline 103 % of control | dose: 3.12 mg/kg/injection, schedule: Q04DX003 (ip), vehicle: saline 95 % of control

ClCc1ccc2ccccc2n1
inactive: [7] 113 % of control | [8] 122 % of control | dose: 132.0 mg/kg/injection, schedule: Q01DX009 (ip), vehicle: saline with Tween-80 113 % of control | [10] 122 % of control | dose: 300.0 mg/kg/injection, schedule: Q01DX009 (ip), vehicle: saline with Tween-80 104 % of control

O=C1c2ccccc2S(=O)(=O)N1CC(O)COc1ccc(Cl)cc1 (centres undefined)
inactive: [11] 104 % of control | [12] 100 % of control | [13] 95 % of control

C1CCC2(CC1)SSC1(CCCCC1)S2
inactive: dose: 50.0 mg/kg/injection, schedule: Q01DX009 (ip), vehicle: other 104 % of control | dose: 100.0 mg/kg/injection, schedule: Q01DX009 (ip), vehicle: other 100 % of control | dose: 200.0 mg/kg/injection, schedule: Q01DX009 (ip), vehicle: other 95 % of control

CCCCCCCOC(C[N+](=O)[O-])C(Cl)(Cl)Cl (centres undefined)
inactive: dose: 12.5 mg/kg/injection, schedule: Q01DX009 (ip), vehicle: saline 120 % of control | dose: 25.0 mg/kg/injection, schedule: Q01DX009 (ip), vehicle: saline 120 % of control | dose: 37.5 mg/kg/injection, schedule: Q04DX003 (ip), vehicle: saline 100 % of control | [6] 120 % of control | dose: 75.0 mg/kg/injection, schedule: Q04DX003 (ip), vehicle: saline 95 % of control | dose: 150.0 mg/kg/injection, schedule: Q04DX003 (ip), vehicle: saline 95 % of control | dose: 340.0 mg/kg/injection, schedule: Q04DX003 (ip), vehicle: saline 90 % of control

CCCCCCCCCCCCCCCCN(C)Cc1ccccc1
inactive: [16] 107 % of control | [17] 108 % of control | dose: 400.0 mg/kg/injection, schedule: Q04DX003 (ip), vehicle: saline 116 % of control

Cc1ccc(NC(=O)CO)cc1
inactive: [2] 102 % of control | [14] 97 % of control | [15] 104 % of control

OCCCN1CCC2(CC1)SSC1(CCN(CCCO)CC1)S2
inactive: dose: 50.0 mg/kg/injection, schedule: Q04DX003 (ip), vehicle: saline 95 % of control | [16] 100 % of control and 109 % of control | [17] 100 % of control and 104 % of control
